According to PubChem BioAssay AID1963849 (Molecular Pharmacology Branch, DTP, NCI, 2024):

Tested on: 299254-011-R-J1-PDC complex spheroid viability
Assay: Anticancer human tumor 299254-011-R-J1-PDC patient-derived melanoma cell line growth inhibition [POLQ]
Settings: for IC50: curve of first compound; for viability, T/C: stronger effect = lower value
Procedure, shortened: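 PDC + HUVEC + MSC complex spheroids; POLQ inhibitors ± partner drugs; top conc. at/near clinical Cmax, else 10 microM (SN-38 1 microM), half-log dilutions; 37 degrees C, 5% CO2.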

[1] = second compound 0.0316 µM, first compound 0.0316 µM
[2] = second compound 0.0316 µM, first compound 0.1 µM
[3] = second compound 0.0316 µM, first compound 0.316 µM
[4] = second compound 0.0316 µM, first compound 1 µM
[5] = second compound 0.0316 µM, first compound 3.16 µM
[6] = second compound 0.0316 µM, first compound 10 µM
[7] = second compound 0.1 µM, first compound 0.0316 µM
[8] = second compound 0.1 µM, first compound 0.1 µM
[9] = second compound 0.1 µM, first compound 0.316 µM
[10] = second compound 0.1 µM, first compound 1 µM
[11] = second compound 0.1 µM, first compound 3.16 µM
[12] = second compound 0.1 µM, first compound 10 µM
[13] = second compound 0.316 µM, first compound 0.0316 µM
[14] = second compound 0.316 µM, first compound 0.1 µM
[15] = second compound 0.316 µM, first compound 0.316 µM
[16] = second compound 0.316 µM, first compound 1 µM
[17] = second compound 0.316 µM, first compound 3.16 µM
[18] = second compound 0.316 µM, first compound 10 µM
[19] = second compound 1 µM, first compound 0.0316 µM
[20] = second compound 1 µM, first compound 0.1 µM
[21] = second compound 1 µM, first compound 0.316 µM
[22] = second compound 1 µM, first compound 1 µM
[23] = second compound 1 µM, first compound 3.16 µM
[24] = second compound 1 µM, first compound 10 µM
[25] = second compound 3.16 µM, first compound 0.0316 µM
[26] = second compound 3.16 µM, first compound 0.1 µM
[27] = second compound 3.16 µM, first compound 0.316 µM
[28] = second compound 3.16 µM, first compound 1 µM
[29] = second compound 3.16 µM, first compound 3.16 µM
[30] = second compound 3.16 µM, first compound 10 µM
[31] = second compound 10 µM, first compound 0.0316 µM
[32] = second compound 10 µM, first compound 0.1 µM
[33] = second compound 10 µM, first compound 0.316 µM
[34] = second compound 10 µM, first compound 1 µM
[35] = second compound 10 µM, first compound 3.16 µM
[36] = second compound 10 µM, first compound 10 µM
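Further: spheroids exposed to drugs for one week before measurement.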
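Wherever viability, T/C is given: percent viability relative to DMSO vehicle control taken as 100%.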

COc1cccc2c1C(=O)c1c(O)c3c(c(O)c1C2=O)CC(O)(C(=O)CO)CC3OC1CC(N)C(O)C(C)O1 (stereo unspecified) + Cc1cccc(N(C)C(=O)C2C(O)CCN2c2nc(C)cc(C(F)(F)F)c2C#N)c1
IC50 (second compound 0.0316 µM): 565 nM | IC50 (second compound 0.1 µM): 803 nM | IC50 (second compound 0.316 µM): 763 nM | IC50 (second compound 1 µM): 670 nM | IC50 (second compound 3.16 µM): 567 nM | IC50 (second compound 10 µM): 352 nM | viability, T/C [1]: 111% | viability, T/C [2]: 77.3% | viability, T/C [3]: 64.9% | viability, T/C [4]: 44.1% | viability, T/C [5]: 12.2% | viability, T/C [6]: 0.75% | viability, T/C [7]: 83.7% | viability, T/C [8]: 75.8% | viability, T/C [9]: 77.4% | viability, T/C [10]: 42.9% | viability, T/C [11]: 11.7% | viability, T/C [12]: 0.68% | viability, T/C [13]: 97.7% | viability, T/C [14]: 83.2% | viability, T/C [15]: 75.2% | viability, T/C [16]: 43.8% | viability, T/C [17]: 11.4% | viability, T/C [18]: 1.03% | viability, T/C [19]: 105% | viability, T/C [20]: 89.8% | viability, T/C [21]: 61.7% | viability, T/C [22]: 48.6% | viability, T/C [23]: 12% | viability, T/C [24]: 0.75% | viability, T/C [25]: 100% | viability, T/C [26]: 74.8% | viability, T/C [27]: 68.8% | viability, T/C [28]: 38.9% | viability, T/C [29]: 8.88% | viability, T/C [30]: 0.51% | viability, T/C [31]: 102% | viability, T/C [32]: 74.6% | viability, T/C [33]: 59.9% | viability, T/C [34]: 19.8% | viability, T/C [35]: 0.75% | viability, T/C [36]: 0.31%

O=c1[nH]cc(F)c(=O)[nH]1 + Nc1ccc(C#CCN(C(=O)Cc2ncc(C(F)(F)F)cc2C(F)(F)F)c2ccc(F)cc2)nn1
IC50 (second compound 0.0316 µM): > 10000 nM | IC50 (second compound 0.1 µM): > 10000 nM | IC50 (second compound 0.316 µM): > 10000 nM | IC50 (second compound 1 µM): > 10000 nM | IC50 (second compound 3.16 µM): > 10000 nM | IC50 (second compound 10 µM): > 10000 nM | viability, T/C [1]: 92.7% | viability, T/C [2]: 111% | viability, T/C [3]: 101% | viability, T/C [4]: 113% | viability, T/C [5]: 89.8% | viability, T/C [6]: 81.4% | viability, T/C [7]: 103% | viability, T/C [8]: 91.2% | viability, T/C [9]: 119% | viability, T/C [10]: 87% | viability, T/C [11]: 82.5% | viability, T/C [12]: 85.3% | viability, T/C [13]: 92% | viability, T/C [14]: 93.3% | viability, T/C [15]: 101% | viability, T/C [16]: 101% | viability, T/C [17]: 95.1% | viability, T/C [18]: 68% | viability, T/C [19]: 116% | viability, T/C [20]: 99.8% | viability, T/C [21]: 95.1% | viability, T/C [22]: 85.6% | viability, T/C [23]: 91.5% | viability, T/C [24]: 78.5% | viability, T/C [25]: 104% | viability, T/C [26]: 95% | viability, T/C [27]: 101% | viability, T/C [28]: 96.8% | viability, T/C [29]: 84.3% | viability, T/C [30]: 89.5% | viability, T/C [31]: 91.1% | viability, T/C [32]: 94.2% | viability, T/C [33]: 101% | viability, T/C [34]: 95.4% | viability, T/C [35]: 88.7% | viability, T/C [36]: 69.1%

COc1cccc2c1C(=O)c1c(O)c3c(c(O)c1C2=O)CC(O)(C(=O)CO)CC3OC1CC(N)C(O)C(C)O1 (stereo unspecified) + Nc1ccc(C#CCN(C(=O)Cc2ncc(C(F)(F)F)cc2C(F)(F)F)c2ccc(F)cc2)nn1
IC50 (second compound 0.0316 µM): 1070 nM | IC50 (second compound 0.1 µM): 927 nM | IC50 (second compound 0.316 µM): 1020 nM | IC50 (second compound 1 µM): 832 nM | IC50 (second compound 3.16 µM): 750 nM | IC50 (second compound 10 µM): 535 nM | viability, T/C [1]: 120% | viability, T/C [2]: 85.1% | viability, T/C [3]: 83.1% | viability, T/C [4]: 56.5% | viability, T/C [5]: 17.8% | viability, T/C [6]: 1.11% | viability, T/C [7]: 89.8% | viability, T/C [8]: 94.6% | viability, T/C [9]: 63.5% | viability, T/C [10]: 54.5% | viability, T/C [11]: 17.9% | viability, T/C [12]: 1.22% | viability, T/C [13]: 93.1% | viability, T/C [14]: 75.2% | viability, T/C [15]: 65.9% | viability, T/C [16]: 61.2% | viability, T/C [17]: 16% | viability, T/C [18]: 2.99% | viability, T/C [19]: 86.6% | viability, T/C [20]: 72.2% | viability, T/C [21]: 87.2% | viability, T/C [22]: 43.9% | viability, T/C [23]: 9.65% | viability, T/C [24]: 0.5% | viability, T/C [25]: 94.9% | viability, T/C [26]: 85.7% | viability, T/C [27]: 77.1% | viability, T/C [28]: 42.7% | viability, T/C [29]: 0.52% | viability, T/C [30]: 2.06% | viability, T/C [31]: 77.7% | viability, T/C [32]: 85.9% | viability, T/C [33]: 65.3% | viability, T/C [34]: 30.5% | viability, T/C [35]: 0.39% | viability, T/C [36]: 2.85%
